# Measured values published in PMC3997483, “Aminostyrylbenzofuran Directly Reduces Oligomeric Amyloid-β and Reverses Cognitive Deficits in Alzheimer Transgenic Mice” (PLoS ONE, 2014).
# Like-named read-outs stand apart in the source and are kept apart here.
# Columns and labels:
# [1] = Plasma and brain pharmacokinetics (BBB penetration) after PO in rats; assay type: in vivo; settings: SD, rat, rats PO 2.5 mg/kg
# Method: (§1) Pharmacokinetics profile of KMS88009 was obtained using ICR mice, SD rats, beagle dogs and cynomolgus monkeys. Animals were fasted overnight before KMS88009 administration. Mice were divided into 2 groups to receive KMS88009 as a single dose of 2.1 mg/kg intravenous (IV) bolus or 10 mg/kg orally (PO) by gavage. Additionally, KMS88009 was administered orally to estimate the BBB penetration in mice (10, 30 and 100 mg/kg). […] Dog received KMS88009 either as an IV bolus (1 mg/kg) via the great saphenous vein or by oral gavage (4 mg/kg). KMS88009 was administrated to monkeys as an IV bolus (1 mg/kg) via the femoral vein or by oral gavage (4 mg/kg). Vehicle for IV and PO administration was DMSO/tween-20/saline (3.3∶[…]∶79.6). All animals (n = 3 per group) were sacrificed and concentration of KMS88009 in plasma and brain were measured at 1/12, 1/4, 1/2, 1, 2, 4, 10 and 24 hr after IV administration and at 1/2, 1, 2, 4, 10 and 24 hr after PO administration. Brain samples were weighed and Daunce-homogenized in 10-fold volume of ice-chilled 4% bovine serum albumin (BSA) solution at room temperature. Plasma and brain homogenates were kept frozen at −70°C until analysis. The levels of KMS88009 were determined by the LC-MS/MS analysis. Pharmacokinetic parameters, time to the maximum concentration (Tmax), maximum concentration (Cmax), elimination half-life (T1/2), volume of distribution (Vd), clearance (Cl) and mean residual time (MRT), of KMS88009 were calculated based on plasma concentration-time data by a non-compartmental method using WinNonlin Version 5.2 (Pharsight, USA). Area under the curve from 0 to 24 hr (AUC0-24h) and area under the curve from 0 to infinity (AUCINF) were obtained by linear and log linear trapezoidal summations.
# [2] = Pharmacokinetics IV/PO in monkeys; assay type: in vivo, cynomolgus monkeys; settings: for AUC(0-t): read-out: AUC0–24h
# Method: as §1, with “KMS88009 was administrated to monkeys as an IV bolus (1 mg/kg) via the femoral vein or by oral gavage (4 mg/kg).” left out, “[…].” for “All animals (n = 3 per group) were sacrificed and concentration of KMS88009 in plasma and brain were measured at 1/12, 1/4, 1/2, 1, 2, 4, 10 and 24 hr after IV administration and at 1/2, 1, 2, 4, 10 and 24 hr after PO administration.”
# [3] = Metabolic stability in liver microsomes; assay type: in vitro ADME, human
# [4] = Metabolic stability in liver microsomes; assay type: in vitro ADME; settings: rat liver microsomes
# [5] = Plasma stability; assay type: in vitro ADME; settings: 37 °C
# Method: Plasma stability studies Plasma stability of the KMS88009 was studied in human, dog, rat and mouse plasma. Each plasma from different species was diluted to 5-fold with 0.05 M phosphate buffered saline (PBS, pH 7.4 at 37 °C). We added KMS88009 to 1 mL of preheated plasma solution to yield a final concentration of 1 μM. The assay was performed in a shaking water bath at 37 °C and conducted in triplicate. Samples (50 μL) were taken at 0, 0.5, 1, 2 and 6 hr and added to 10 μL of 0.05% formic acid. The samples were subjected to vortex mixing for 1 min and centrifuged at 4 °C for 20 min at 14,000 rpm. The clear supernatants were analyzed by liquid chromatography/mass/mass spectrometry (LC-MS/MS). Values are expressed as the mean ± SD of 2 independent experiments. Stability is expressed as the percentage of remaining compound in % relative to the start concentration set to 100%.
# [6] = test system: APP/PS1 TG mice; test: Contextual fear conditioning, prophylactic trial; assay type: in vivo, mouse; settings: vehicle TG 15.3%, WT 54.1%
# [7] = cynomolgus monkey, plasma, monkey IV 0.77 mg/kg
# [8] = cynomolgus monkey, plasma, monkey PO 5.6 mg/kg
# [9] = cynomolgus monkey, monkey IV 0.77 mg/kg, plasma
# [10] = cynomolgus monkey, monkey PO 5.6 mg/kg, plasma
smiles,measurement,setting,value
"COc1ccc2cc(C=Cc3ccc(N(C)C)cc3)oc2c1 [KMS88009, 6-methoxy-2-(4-dimethylaminostyryl) benzofuran]",Cmax,[1]; brain,1310 ng/g
same,Tmax,"[1]; plasma, same data as Table 3",1.7 h
same,AUC(0-t),"[1]; plasma, same data as Table 3, read-out: AUC0–24h",908 ng·h/mL
same,MRT last,[2]; [7],3.6 ± 0.5 h
same,Vd,[2]; [7],4.4 ± 1.1 L/kg
same,clearance,[2]; [7],8.33 mL/min/kg
same,half-life,[2]; [7],348 ± 48 min
same,MRT last,[2]; [8],5.9 ± 0.6 h
same,Tmax,[2]; [8],2.7 ± 1.2 h
same,half-life,[2]; [8],258 ± 12 min
same,AUC(0-inf),[2]; [9],1590 ± 576 ng·h/mL
same,AUC(0-t),[2]; [9],1540 ± 550 ng·h/mL
same,AUC(0-inf),[2]; [10],3920 ± 1480 ng·h/mL
same,Cmax,[2]; [10],505 ± 78.3 ng/mL
same,AUC(0-t),[2]; [10],3810 ± 1430 ng·h/mL
same,BA,[2]; monkey PO 5.6 mg/kg vs IV 0.77 mg/kg,34.1%
same,Metabolic stability,"[3]; human liver microsomes 1 mg/mL, 5 µM, symbol",√ (Mean percent value is confirmed over 90% at 60 min.)
same,"remaining at 1 h, 5 µM","[3]; human liver microsomes, read-out: Remaining % of parent molecule at 60 min.",92.7 ± 0.4%
same,half-life at 5 µM,[4],58.4 ± 0.4 min
same,"remaining at 1 h, 5 µM",[4]; read-out: Remaining % of parent molecule at 60 min.,61.2 ± 0.2%
same,Parent compound remaining,"[5]; dog plasma, 0.5 hr",100.0%
same,Parent compound remaining,"[5]; dog plasma, 1 hr",100.0%
same,Parent compound remaining,"[5]; dog plasma, 2 hr",100.0%
same,Parent compound remaining,"[5]; dog plasma, 6 hr",100.0%
same,Parent compound remaining,"[5]; human plasma, 0.5 hr",100.0%
same,Parent compound remaining,"[5]; human plasma, 1 hr",100.0%
same,Parent compound remaining,"[5]; human plasma, 2 hr",82.0%
same,Parent compound remaining,"[5]; human plasma, 6 hr",100.0%
same,Parent compound remaining,"[5]; mouse plasma, 0.5 hr",100.0%
same,Parent compound remaining,"[5]; mouse plasma, 1 hr",100.0%
same,Parent compound remaining,"[5]; mouse plasma, 2 hr",100.0%
same,Parent compound remaining,"[5]; mouse plasma, 6 hr",100.0%
same,Parent compound remaining,"[5]; rat plasma, 0.5 hr",86.9%
same,Parent compound remaining,"[5]; rat plasma, 1 hr",93.7%
same,Parent compound remaining,"[5]; rat plasma, 2 hr",100.0%
same,Parent compound remaining,"[5]; rat plasma, 6 hr",100.0%
same,freezing responses (contextual fear conditioning),[6]; PO 10 mg/kg/day,42.3%
same,freezing responses (contextual fear conditioning),[6]; PO 30 mg/kg/day,48.6%
same,freezing responses (contextual fear conditioning),[6]; PO 100 mg/kg/day,49.3%
